Experimental data reported in patent US4363793A, “Diagnostic radiopharmaceuticals for localization in target tissues exhibiting a regional pH shift relative to surrounding tissues” (State University of New York, priority 1980, dated 1982).

Tests used:
[1] = Organ distribution of Se-75 labeled compound in rats after intravenous injection; assay type: in vivo, Spraque-Dawley male rats; details: rat; for % dose/organ, blood: blood assumed 7% of body weight; for % dose/organ, muscle: muscle assumed 40% of body weight
From the text: FIGS. 2 and 3 respectively show the relative concentration of Se-75 labeled di-β-(piperidinoethyl)-selenide and di-β-(morpholinoethyl)-selenide in rat brains at several time intervals after an intravenous injection of a dose of the respective compounds into the rat. As is shown in FIG. 3, and also in Table 4, two minutes after an intravenous injection of Se-75 labeled di-β-(morpholinoethyl)-selenide, the brain uptake of the radiopharmaceutical compound reaches a value of 3.19%. […] The terms uptake, % uptake or % dose are used to describe the percentage of the radiopharmaceutical compound contained in a given organ or tissue as compared to the total initial dose. The numerical values in FIGS. 2 and 3 and Tables 3 and 4 represent such percentages.
Studies of distribution of the radiopharmaceutical compounds of the present invention in rats, the results of which are reflected in FIGS. 2 and 3 and Tables 3 and 4, were conducted according to standard practice in the pharmacological sciences, and therefore need not be described here in great detail. Nevertheless, for the sake of complete understanding of the present invention, some experimental details of these studies are briefly described below:
Spraque-Dawley male rats (220-300 g) were injected intravenously (femoral vein) with a 0.2 ml solution (0.5-2 micro Ci) under light ether anaesthesia. At different time periods after the injection, the animals were sacrificed and organs of interest were excised and counted in a well counter. Percent dose was estimated by comparison of tissue counts to suitably diluted aliquots of the injected material. Total activities in blood and muscle were calculated by assuming that they are 7% and 40% of the body weight respectively.

[2] = Brain imaging study on rhesus monkey (Cleon 710 ECAT scanner); assay type: in vivo, rhesus monkeys; details: 5.3 kg monkey, 1 mCi injected, images 15 minutes to 2 hours
Experimental: In addition to the above described organ and tissue distribution studies in rats of the several compounds of the present invention, brain imaging studies were also conducted on rhesus monkeys using a Cleon 710 ECAT scanner.
A 5.3 kg monkey, lightly sedated with Ketalar, was injected with 1 mCi of di-β-(morpholinoethyl)-selenide, (specific activity 1 mCi/mg). Five minutes later the monkey was anaesthetized with pentabarbital. A series of tomographic images was taken at roughly 1/2" intervals starting at the vertex. The first image was started 15 minutes after injection and various images were recorded up to 2 hours after injection. Each image contained approximately one million counts. At the conclusion of the imaging experiment, the monkey was killed and the brain was assayed in the dose calibrator used for measuring the injected dose. No correction was applied for the change in geometry between the syringe and the monkey brain. The weight of the brain was 84 g.

[3] = n-octanol-aqueous medium partition coefficient pH correlation; assay type: physicochemical; details: pH 7.4; morpholinoethyl vs piperidinoethyl selenide
From the text: The n-octanol-aqueous medium partition coefficients of the compound are readily measured in accordance with standard practice in the prior art. Briefly, such measurements include the steps of dissolving a known amount of the compound in an aqueous buffer of a predetermined pH and extracting the buffer solution with a known amount of n-octanol until an equilibrium of distribution of the compound between the aqueous and n-octanol phases occurs. The concentration of the compound in both phases is then measured by suitable analytical means, such as ultraviolet spectrophotometry; the partition coefficient being the ratio of the two measured concentrations.
For the purposes of evaluating a plurality of radioactive compounds for use in the novel method of the present invention, the n-octanol-aqueous medium partition coefficients of the compounds were measured in the following manner. The radioactive compound was mixed with 1.0 ml of n-octanol and 1.0 ml of buffer of the desired predetermined pH. The radioactivity of this mixture was counted, and the mixture was placed in a water bath shaker at 37° C. for 2 hours. After centrifugation at 3,000 rpm for 5 minutes, the n-octanol layer was separated and its radioactivity counted. The partition coefficient of the compound was calculated by the following equation: [formula]

[4] = i.v., 15 min (average of 6 rats)

C1CN(CC[75Se]CCN2CCOCC2)CCO1 [di-β-(morpholinoethyl)-selenide]
decrease of brain content (% dose) (in words) ([1]; after intravenous injection): decreases much more rapidly after the intravenous injection than that of di-β-(piperidinoethyl)-selenide | penetration of the blood brain barrier (in words) ([1]; i.v.): capable of penetrating the blood brain barrier | % dose/organ, heart ([1]; i.v., 2 min): 0.45% | % dose/organ, kidney ([1]; i.v., 2 min): 9.89% | % dose/organ, liver ([1]; i.v., 2 min): 18.3% | % dose/organ, lung(2) ([1]; i.v., 2 min): 2.77% | % dose/organ, pancreas ([1]; i.v., 2 min): 0.88% | % dose/organ, spleen ([1]; i.v., 2 min): 0.68% | % dose/organ, brain (brain uptake) ([1]; i.v., 2 min (morpholinoethyl: average of 5 samples)): 3.19% | % dose/organ, blood ([1]; i.v., 2 min): 3.13% | % dose/organ, muscle ([1]; i.v., 2 min): 10.5% | % dose/organ, brain (brain uptake) ([1]; i.v., 5 min): 2.80% | % dose/organ, kidney ([1]; i.v., 5 min): 7.46% | % dose/organ, liver ([1]; i.v., 5 min): 19.7% | % dose/organ, spleen ([1]; i.v., 5 min): 0.87% | % dose/organ, blood ([1]; i.v., 5 min): 2.72% | % dose/organ, muscle ([1]; i.v., 5 min): 15.0% | % dose/organ, brain (brain uptake) [1, 4]: 2.23% | % dose/organ, kidney [1, 4]: 4.04% | % dose/organ, liver [1, 4]: 22.1% | % dose/organ, spleen [1, 4]: 1.23% | % dose/organ, blood [1, 4]: 2.26% | % dose/organ, muscle [1, 4]: 19.4% | % dose/organ, brain (brain uptake) ([1]; i.v., 30 min): 1.53% | % dose/organ, heart ([1]; i.v., 30 min): 0.22% | % dose/organ, kidney ([1]; i.v., 30 min): 4.03% | % dose/organ, liver ([1]; i.v., 30 min): 23.3% | % dose/organ, lung(2) ([1]; i.v., 30 min): 1.79% | % dose/organ, pancreas ([1]; i.v., 30 min): 0.38% | % dose/organ, spleen ([1]; i.v., 30 min): 1.55% | % dose/organ, blood ([1]; i.v., 30 min): 2.82% | % dose/organ, muscle ([1]; i.v., 30 min): 14.4% | % dose/organ, brain (brain uptake) ([1]; i.v., 1 hr): 1.19% | % dose/organ, kidney ([1]; i.v., 1 hr): 4.30% | % dose/organ, liver ([1]; i.v., 1 hr): 29.9% | % dose/organ, blood ([1]; i.v., 1 hr): 2.61% | % dose/organ, muscle ([1]; i.v., 1 hr): 13.6% | % dose/organ, brain (brain uptake) ([1]; i.v., 2 hr): 0.56% | % dose/organ, heart ([1]; i.v., 2 hr): 0.18% | % dose/organ, kidney ([1]; i.v., 2 hr): 3.42% | % dose/organ, liver ([1]; i.v., 2 hr): 21.7% | % dose/organ, lung(2) ([1]; i.v., 2 hr): 0.94% | % dose/organ, pancreas ([1]; i.v., 2 hr): 0.25% | % dose/organ, spleen ([1]; i.v., 2 hr): 0.88% | % dose/organ, blood ([1]; i.v., 2 hr): 2.46% | % dose/organ, muscle ([1]; i.v., 2 hr): 17.7% | % dose/organ, brain (brain uptake) ([1]; i.v., 6 hr): 0.10% | % dose/organ, kidney ([1]; i.v., 6 hr): 0.64% | % dose/organ, liver ([1]; i.v., 6 hr): 4.38% | % dose/organ, spleen ([1]; i.v., 6 hr): 0.19% | % dose/organ, blood ([1]; i.v., 6 hr): 0.61% | % dose/organ, muscle ([1]; i.v., 6 hr): 3.43% | % dose/organ, brain (brain uptake) ([1]; i.v., 24 hr): 0.02% | % dose/organ, heart ([1]; i.v., 24 hr): 0.02% | % dose/organ, kidney ([1]; i.v., 24 hr): 0.29% | % dose/organ, liver ([1]; i.v., 24 hr): 2.15% | % dose/organ, lung(2) ([1]; i.v., 24 hr): 0.04% | % dose/organ, pancreas ([1]; i.v., 24 hr): 0.01% | % dose/organ, spleen ([1]; i.v., 24 hr): 0.10% | % dose/organ, blood ([1]; i.v., 24 hr): 0.13% | % dose/organ, muscle ([1]; i.v., 24 hr): 0.74% | distribution in monkey brain (in words) [2]: resembles the distribution observed for F-18 2-fluoro-2-deoxyglucose or for N-13 labeled ammonia, with a higher uptake of the radiopharmaceutical compound in gray matter of the brain than in white matter | partition coefficient / lipid solubility at the pH of the blood (in words) [3]: higher partition coefficient at the pH of the blood (7.4) than di-β-(piperidinoethyl)-selenide
